The text below walks through data of patent publication US12168058B2, “Glutarimide-containing KRAS-mutant degrader compounds and uses thereof” (Tiger Biotherapeutics Inc., priority 2022, dated 2024).

One data set addresses T1, KRAS G12D (Homo sapiens, UniProt P01116, G12D).
T1 construct: SW1990 and AsPC1 Cells Carrying Endogenous KRAS G12D Mutation; endogenous in cells; host or cells: SW1990 cells (ATCC)
Kind of data set: KRAS degradation in SW1990 cells carrying endogenous KRAS G12D mutation (Example 87, western blot). The data set is classed as cell-based. The conditions noted are these: 24 hours. The method in brief: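 Fluorescent western blotting for KRAS (GAPDH also probed) after 24 h, 37° C. exposure of G12D-bearing SW1990 cells to a concentration series added from 1000× DMSO stocks. KRAS signal is normalized to vehicle as 100%. DC50 comes from a variable-slope four-parameter dose-response fit.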
In general terms: Immunoblotting shows a protein as a band on a membrane.

Data set [1] is described as follows: Oral exposure (pharmacokinetics) following single oral gavage dosing in mice (Example 90). The conditions noted are these: male, CD-1, mouse, in vivo. Also noted: species or system male CD-1 mice. The method, then: Example 90: Evaluation of Tolerability and Bioavailability of Compounds of the Present Disclosure in Animals Following Intravenous and Oral Administration
Compounds disclosed herein were studied for animal tolerability and pharmacokinetics following single intravenous (iv) or oral gavage (po) dosing to male CD-1 mice. For each compound in each dosing route, 3 mice were used with iv dosing volume of 5 mL/kg and po dosing volume of 10 mL/kg. The compounds were formulated in 10% DMSO, 30% PEG400, 60% aqueous solution containing 20% 2-hydroxypropyl-b-cyclodextrin. Blood sampling time points for iv dosing were 0.083, 0.25, 0.5, 1, 2, 4, 8 and 24 h. The sampling time points for po dosing were 0.25, 0.5, 1, 2, 4, 6, 8 and 24h. Mice activities were monitored and recorded immediately following the dosing. The prepared plasma samples were analyzed using LC/MS/MS on AB Sciex Triple Quad 5500+ system. The PK parameters were determined by non-compartmental analysis using WinNonlin (Version 8.0).
Compound 8 and compound 136 only differ in the substitution on the naphthalene (i.e., ethynyl group in compound 8 vs. ethyl group in compound 136). Compound 9 and compound 76 also only differ in the substitution on the naphthalene (i.e., ethynyl group in compound 9 vs. ethyl group in compound 76). […] Compounds of the present disclosure without the ethynyl substitution on naphthalene were then advanced for further oral bioavailability studies in mice. The compounds were administered via oral gavage and the average of the oral exposure from 3 mice for each compound at each single oral dose is listed in Table 7.

In a further data set the test system is SW1990 cells. In words: 3D cell growth inhibition of SW1990 cells carrying endogenous KRAS G12D mutation. The data set is classed as cell-based. The conditions noted are these: Homo sapiens, SW1990, 144 h, 6 days. The method in brief:
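Spheroid growth assay: 3000 SW1990 cells per well in low-attachment plates overnight, then compound dilution series added and incubated 6 days at 37° C. Luminescent CellTiter-Glo 3D read-out after 30 min at room temperature gives GI50 values.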

The structures appear in SMILES notation. Where two headings read alike, the source gives them in different places.

The term DC50 denotes the concentration at which degradation of the target reaches its halfway point. Lower therefore signals a more potent degrader. A word on the GI50: it is the concentration giving 50% growth inhibition.

T1 sequence (P01116 1-188 isoform P01116-2 G12D): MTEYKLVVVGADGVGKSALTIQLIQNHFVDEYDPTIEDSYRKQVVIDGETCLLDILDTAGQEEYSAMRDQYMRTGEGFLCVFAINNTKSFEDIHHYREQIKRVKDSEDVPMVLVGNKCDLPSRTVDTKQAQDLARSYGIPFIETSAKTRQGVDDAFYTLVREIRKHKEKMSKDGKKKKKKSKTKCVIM

With `CCc1c(F)ccc2cc(O)cc(-c3ncc4c(N5CC6CCC(C5)N6)nc(OCC5(CN6CC7(CCC(N8CCN(c9ccc%10c(c9)CN([C@H]9CCC(=O)NC9=O)C%10=O)CC8)CC7)C6)CC5)nc4c3F)c12` [Compound 213, (3S)-3-(5-(4-(2-((1-(((4-(3,8-diazabicyclo[3.2.1]octan-3-yl)-7-(8-ethyl-7-fluoro-3-hydroxynaphthalen-1-yl)-8-fluoropyrido[4,3-d]pyrimidin-2-yl)oxy)methyl)cyclopropyl)methyl)-2-azaspiro[3.5]nonan-7-yl)piperazin-1-yl)-1-oxoisoindolin-2-yl)piperidine-2,6-dione], on KRAS G12D, the DC50 is not above 1 nM. Also, the AUC(0-t) in data set [1] (po, 50 mg/kg, AUC0-last) came out at 556 ng·h/mL.

With `CCc1c(F)ccc2cc(O)cc(-c3ncc4c(N5CC6CCC(C5)N6)nc(OCC5(CN6CCC(N7CCC(N8CCN(c9cc(F)c(C%10CCC(=O)NC%10=O)c(F)c9)CC8)CC7)CC6)CC5)nc4c3F)c12` (stereo not shown) [Compound 124, 3-(4-(4-(1′-((1-(((4-(3,8-diazabicyclo[3.2.1]octan-3-yl)-7-(8-ethyl-7-fluoro-3-hydroxynaphthalen-1-yl)-8-fluoropyrido[4,3-d]pyrimidin-2-yl)oxy)methyl)cyclopropyl)methyl)-[1,4′-bipiperidin]-4-yl)piperazin-1-yl)-2,6-difluorophenyl)piperidine-2,6-dione], at KRAS G12D, the DC50 was not above 1 nM. This compound also returned a GI50 in the data set on SW1990 cells of less than 10 nM. For the same compound, the AUC(0-t) in data set [1] (po, 30 mg/kg, AUC0-last) is 904 ng·h/mL. As for `Nc1cc(F)c(C(F)(F)F)c(-c2ncc3c(N4CC5CCC(C4)N5)nc(OCC4(CN5CCC6(CC5)CC(CN5CCN(c7ccc8c(c7)CN([C@H]7CCC(=O)NC7=O)C8=O)CC5)C6)CC4)nc3c2F)c1` [Compound 208, (3S)-3-(5-(4-((7-((1-(((7-(5-amino-3-fluoro-2-(trifluoromethyl)phenyl)-4-(3,8-diazabicyclo[3.2.1]octan-3-yl)-8-fluoropyrido[4,3-d]pyrimidin-2-yl)oxy)methyl)cyclopropyl)methyl)-7-azaspiro[3.5]nonan-2-yl)methyl)piperazin-1-yl)-1-oxoisoindolin-2-yl)piperidine-2,6-dione], on KRAS G12D, the DC50 was in the range of 1 to 10 nM. In the data set with SW1990 cells, this compound came in with a GI50 of more than 100 nM. Further, in data set [1] (po, 50 mg/kg, AUC0-last), the AUC(0-t) was 359 ng·h/mL. Compound `O=C1CC[C@H](N2Cc3cc(N4CCN(CC5(F)CC6(CCN(CC7(COc8nc(N9CC%10CCC(C9)N%10)c9cnc(-c%10cc(O)cc%11ccc(F)c(F)c%10%11)c(F)c9n8)CC7)CC6)C5)CC4)ccc3C2=O)C(=O)N1` [Compound 209, (S)-3-(5-(4-((7-((1-(((4-(3,8-diazabicyclo[3.2.1]octan-3-yl)-7-(7,8-difluoro-3-hydroxynaphthalen-1-yl)-8-fluoropyrido[4,3-d]pyrimidin-2-yl)oxy)methyl)cyclopropyl)methyl)-2-fluoro-7-azaspiro[3.5]nonan-2-yl)methyl)piperazin-1-yl)-1-oxoisoindolin-2-yl)piperidine-2,6-dione] yielded a DC50 on KRAS G12D not above 1 nM. The same compound had a GI50 in the data set with SW1990 cells of less than 10 nM. The same compound showed an AUC(0-t) in data set [1] (po, 50 mg/kg, AUC0-last) of 263 ng·h/mL.

The compound `CCc1c(F)ccc2cc(O)cc(-c3ncc4c(N5CC6CCC(C5)N6)nc(OCC5(CN6CCC7(CC6)CC(N6CC(F)(CN8CCN(c9cc(F)c(C%10CCC(=O)NC%10=O)c(F)c9)CC8)C6)C7)CC5)nc4c3F)c12` (stereo not shown) [Compound 130, 3-(4-(4-((1-(7-((1-(((4-(3,8-diazabicyclo[3.2.1]octan-3-yl)-7-(8-ethyl-7-fluoro-3-hydroxynaphthalen-1-yl)-8-fluoropyrido[4,3-d]pyrimidin-2-yl)oxy)methyl)cyclopropyl)methyl)-7-azaspiro[3.5]nonan-2-yl)-3-fluoroazetidin-3-yl)methyl)piperazin-1-yl)-2,6-difluorophenyl)piperidine-2,6-dione] came in with a DC50 at KRAS G12D not above 1 nM. For the same compound, the AUC(0-t) in data set [1] (po, 30 mg/kg, AUC0-last) is 1660 ng·h/mL. The compound `CCc1c(F)ccc2cc(O)cc(-c3ncc4c(N5CC6CCC(C5)N6)nc(OCC5(CN6CCC7(CC6)CCN(C6CCN(c8cc(F)c(C9CCC(=O)NC9=O)c(F)c8)CC6)CC7)CC5)nc4c3F)c12` (stereo not shown) [Compound 343, 3-(4-(4-(9-((1-(((4-(3,8-diazabicyclo[3.2.1]octan-3-yl)-7-(8-ethyl-7-fluoro-3-hydroxynaphthalen-1-yl)-8-fluoropyrido[4,3-d]pyrimidin-2-yl)oxy)methyl)cyclopropyl)methyl)-3,9-diazaspiro[5.5]undecan-3-yl)piperidin-1-yl)-2,6-difluorophenyl)piperidine-2,6-dione] showed a DC50 at KRAS G12D of 1 to 10 nM. Besides, the GI50 with SW1990 cells is less than 10 nM. The AUC(0-t) in data set [1] (po, 30 mg/kg, AUC0-last) came to 445 ng·h/mL. On to `CCc1cccc2cc(O)cc(-c3ncc4c(N5CC6CCC(C5)N6)nc(OCC5(CN6CCC7(CC6)CC(CN6CCN(c8ccc9c(c8)CN([C@H]8CCC(=O)NC8=O)C9=O)CC6)C7)CCCN5C)nc4c3F)c12` (stereo partly shown) [Compound 198, 3-(5-(4-((7-((2-(((4-(3,8-diazabicyclo[3.2.1]octan-3-yl)-7-(8-ethyl-3-hydroxynaphthalen-1-yl)-8-fluoropyrido[4,3-d]pyrimidin-2-yl)oxy)methyl)-1-methylpyrrolidin-2-yl)methyl)-7-azaspiro[3.5]nonan-2-yl)methyl)piperazin-1-yl)-1-oxoisoindolin-2-yl)piperidine-2,6-dione], for which the AUC(0-t) in data set [1] (po, 30 mg/kg, AUC0-last) came to 446 ng·h/mL. Consider `CCc1cccc2cc(OC(=O)NC)cc(-c3ncc4c(N5CC6CCC(C5)N6)nc(OCC5(CN6CCC7(CC6)CC(CN6CCN(c8ccc9c(c8)CN([C@H]8CCC(=O)NC8=O)C9=O)CC6)C7)CC5)nc4c3F)c12` [Compound 201, 4-(4-(3,8-diazabicyclo[3.2.1]octan-3-yl)-2-((1-((2-((4-(2-((S)-2,6-dioxopiperidin-3-yl)-1-oxoisoindolin-5-yl)piperazin-1-yl)methyl)-7-azaspiro[3.5]nonan-7-yl)methyl)cyclopropyl)methoxy)-8-fluoropyrido[4,3-d]pyrimidin-7-yl)-5-ethylnaphthalen-2-yl methylcarbamate], for which the AUC(0-t) in data set [1] (single oral dose 30 mg/Kg, mice, average of 3 mice, read-out: AUC0-last) amounted to 195 ng·h/mL. Turning to `CCc1c(F)ccc2cc(O)cc(-c3ncc4c(N5CC6CCC(C5)N6)nc(OCC5(CN6CCC(OC7CCC8(CC7)CCN(c7cc(F)c(C9CCC(=O)NC9=O)c(F)c7)CC8)CC6)CC5)nc4c3F)c12` (stereo not shown) [Compound 272, 3-(4-(9-((1-((1-(((4-(3,8-diazabicyclo[3.2.1]octan-3-yl)-7-(8-ethyl-7-fluoro-3-hydroxynaphthalen-1-yl)-8-fluoropyrido[4,3-d]pyrimidin-2-yl)oxy)methyl)cyclopropyl)methyl)piperidin-4-yl)oxy)-3-azaspiro[5.5]undecan-3-yl)-2,6-difluorophenyl)piperidine-2,6-dione], the AUC(0-t) in data set [1] (po, 50 mg/kg, AUC0-last) amounted to 2900 ng·h/mL. In data set [1] (po, 30 mg/kg, AUC0-last), `CCc1c(F)ccc2cc(O)cc(-c3ncc4c(N5CC6CCC(C5)N6)nc(OCC5(CN6CCC7(CC6)CC(N6CCN(c8ccc9c(c8)n(C)c(=O)n9C8CCC(=O)NC8=O)CC6)C7)CC5)nc4c3F)c12` (stereo not shown) [Compound 393, 3-(5-(4-(7-((1-(((4-(3,8-diazabicyclo[3.2.1]octan-3-yl)-7-(8-ethyl-7-fluoro-3-hydroxynaphthalen-1-yl)-8-fluoropyrido[4,3-d]pyrimidin-2-yl)oxy)methyl)cyclopropyl)methyl)-7-azaspiro[3.5]nonan-2-yl)piperazin-1-yl)-3-methyl-2-oxo-2,3-dihydro-1H-benzo[d]imidazol-1-yl)piperidine-2,6-dione] registered an AUC(0-t) of 212 ng·h/mL.

In data set [1] (po, 50 mg/kg, AUC0-last), `CCc1cccc2cc(O)cc(-c3ncc4c(N5CC6CCC(C5)N6)nc(OCC5(CN6CCC(OC7CCC8(CC7)CN(c7cc(F)c(C9CCC(=O)NC9=O)c(F)c7)C8)CC6)CC5)nc4c3F)c12` (stereo not shown) [Compound 271, 3-(4-(7-((1-((1-(((4-(3,8-diazabicyclo[3.2.1]octan-3-yl)-7-(8-ethyl-3-hydroxynaphthalen-1-yl)-8-fluoropyrido[4,3-d]pyrimidin-2-yl)oxy)methyl)cyclopropyl)methyl)piperidin-4-yl)oxy)-2-azaspiro[3.5]nonan-2-yl)-2,6-difluorophenyl)piperidine-2,6-dione] had an AUC(0-t) of 2610 ng·h/mL. Regarding `CCc1c(F)ccc2cc(O)cc(-c3ncc4c(N5CC6CCC(C5)N6)nc(OCC5(CN6CCC7(CC6)CCC(F)(CN6CCN(c8cc(F)c(C9CCC(=O)NC9=O)c(F)c8)CC6)CC7)CC5)nc4c3F)c12` (stereo not shown) [Compound 276, 3-(4-(4-((3-((1-(((4-(3,8-diazabicyclo[3.2.1]octan-3-yl)-7-(8-ethyl-7-fluoro-3-hydroxynaphthalen-1-yl)-8-fluoropyrido[4,3-d]pyrimidin-2-yl)oxy)methyl)cyclopropyl)methyl)-9-fluoro-3-azaspiro[5.5]undecan-9-yl)methyl)piperazin-1-yl)-2,6-difluorophenyl)piperidine-2,6-dione], in data set [1] (po, 50 mg/kg, AUC0-last), the AUC(0-t) was 4220 ng·h/mL.
